Measurements as given in ChEMBL document CHEMBL3507680, “University of Dundee, Gates Library screen for HepG2 cell viability”.

assay: Human HepG2 cell viability assay in 384 well format; format: toxicity, cell-based; design: dose 125 nL, time 70.5 hour; concentration not given beside the values; conditions: HepG2 cells, read-out: Inhibition

| Structure (SMILES) | cytotoxicity at 70.5 h [%] |
| --- | --- |
| COc1ccccc1CC(C)N(C)S(C)(=O)=O (stereo not drawn) | -6.61 |
| Cc1cc(C)n(CC2CCCN2C(=O)CCCc2ccccn2)n1 (stereo not drawn) | -5.04 |
| CN(C)S(=O)(=O)N1CCC2(COCc3cnc(NCC4CC4)nc32)C1 (stereo not drawn) | 29.2 |
| CN(CCCc1cnn(C)c1)C(=O)Nc1cccc(C#N)c1 | -6.3 |
| CC(=O)N1CCN(Cc2nnc(C(C)(C)C)o2)CC1 | -8.04 |
| O=C(C1CCCC1)N1CCC(c2ncc3c(n2)CCNC3)C1 (stereo not drawn) | -5.84 |
| Cc1cc(N2CCCN(C(C(=O)O)c3cccc(C)c3F)CC2)ccn1 (stereo not drawn) | 3.14 |
| CCc1nc(C)sc1C(=O)N1CCN(c2ncccc2C)CC1 | -4.24 |
| CS(=O)(=O)NCC1CCCN(C(=O)Nc2ccccc2N2CCCC2)C1 (stereo not drawn) | -1.87 |
| CN1CCCC(N(C)C(=O)c2ccc(NC(=O)c3ccc[nH]3)cc2)C1 (stereo not drawn) | -0.19 |
| CCc1cnc(CN(C(C)=O)C2CCN(CCS(C)(=O)=O)C2)o1 (stereo not drawn) | 32.1 |
| COCC1CC2(CCN(S(=O)(=O)C3CC3)CC2)CN1c1ncccn1 (stereo not drawn) | 14.2 |
| CCOc1ccccc1C(=O)N1CCCC(O)(CN(C)C)C1 (stereo not drawn) | 11.6 |
| COc1cccc(Cn2c(C)c(C)oc2=O)c1OC | 1.78 |
| CC(C)n1cc(CN2CCCN(C(=O)C3CCOC3)CC2)cn1 (stereo not drawn) | 19.9 |
| CCOC(=O)CNc1nc(COC)nc2c1cnn2C | -4.25 |
| CSCC(C)N(C)C(=O)c1nn(-c2ccc(F)cc2C)cc1O (stereo not drawn) | -10.1 |
| CCNc1cc2c(nn1)CCN(C(=O)c1ccnc(C)n1)C2 | -2.85 |
| Cc1noc(Cl)c1CC(=O)N1CCCC(n2cccn2)C1 (stereo not drawn) | -4.55 |
| CN(C)C(=O)c1cc2c(nc1NCC1CC1)CCN(CC1CC1)CC2 | 5.16 |
| NC(=O)c1ccc(-c2nc3c(c(=O)[nH]2)CCNC3)cc1 | -2.1 |
| COc1cc(CNCC(O)c2ccc(C)cc2)cc2c1OCO2 (stereo not drawn) | -2.01 |
| Cc1ccc(CN2CC[C@H](c3nnc(COc4ccc(F)cc4)o3)C2)o1 | -6.96 |

| Structure (SMILES) | cytotoxicity at 70.5 h [%] |
| --- | --- |
| COc1cccc(C(O)CN2CCN(C(=O)c3ccsc3)CC2)c1 (stereo not drawn) | -5.91 |
| Cc1ncncc1C(=O)Nc1cnn(CC(=O)NC2CCCC2)c1 | -19.5 |
| CN(CCC(N)=O)Cc1cc(Br)cs1 | -19.7 |
| Cc1ccccc1CC(C)(C)NC(=O)CCOc1cccc(C(N)=O)c1 | 4.51 |
| CCCC(O)CN1CC(C)(C)CN(C(=O)CCc2ccccc2)CC1=O (stereo not drawn) | 19.5 |
| Cn1cc(CN2CCCC23CCN(c2nc4ccccc4s2)CC3)cn1 | -4.41 |
| COCCN1CCC12CCN(c1ncccn1)C2 (stereo not drawn) | -5.32 |
| CN1CCC2(COCCN(Cc3ccc4c(c3)OCO4)C2)C1 (stereo not drawn) | 13.5 |
| COC(=O)c1cccn1C1CCN(C(=O)c2c(C)noc2C)CC1 | 3.97 |
| CNC(=O)COc1ccc(CNCc2ccc(F)cc2F)cc1 | -3.23 |
| CN(C)S(=O)(=O)N1C[C@@H](OCc2cccnc2)[C@H]2OCCC[C@H]21 | 12.6 |
| Cc1ccsc1C(=O)N1CCc2ncnc(NC(C)C)c2CC1 | -7.7 |
| Cc1noc(C)c1CN1C[C@H](OCC(=O)N(C)C)[C@H]2COC[C@H]21 | -6.89 |
| CC1(Cc2ccc(F)cc2)Cc2cc(C(=O)NCCO)ccc2O1 (stereo not drawn) | -0.493 |
| CC(CO)CSc1ncnc2[nH]ncc12 (stereo not drawn) | -0.794 |
| CN(Cc1cn2c(n1)CN(c1ncc(F)cn1)CC2)Cc1ccco1 | -8.98 |
| CNc1cccc(CC2COCCN(C(=O)c3cnn(C)c3)C2)n1 (stereo not drawn) | -0.46 |
| COCCN1CCN(Cc2cnc(C)nc2)CC1 | -6.04 |
| CC(C)N1CCC(CC(=O)NC(C(=O)O)c2cc(F)ccc2F)CC1 (stereo not drawn) | -16.6 |
| Cc1nc2n(n1)CC(NCc1ccccc1OCC(=O)N(C)C)CC2 (stereo not drawn) | -3.73 |
| Cc1n[nH]cc1CNC1CCN(c2cccc(C(F)(F)F)c2)CC1 | 2.2 |
| O=C1CCC(=O)N1CCOc1nc(-c2ccccc2Cl)no1 | -77.6 |
| O=C1C[C@H]2CC[C@@H](CN1)N2C(=O)CCc1ccc2c(c1)OCO2 | -12.8 |

| Structure (SMILES) | cytotoxicity at 70.5 h [%] |
| --- | --- |
| CCC(C(=O)N(C)Cc1cc(C2CC2)[nH]n1)n1cccn1 (stereo not drawn) | -5.95 |
| COc1ccccc1Cc1cncc(N2CC(C(=O)O)C2)n1 | -13.5 |
| CC(=O)c1cccc(OCC(=O)N(CC(C)C)C2CCN(C)CC2)c1 | 10.2 |
| CCc1nc(C2CCCN(C(=O)c3cccc(C(N)=O)c3)C2)no1 (stereo not drawn) | 1.02 |
| COC(=O)c1ccn(CC(=O)Nc2nn(CC3CC3)c3ccccc23)n1 | -0.998 |
| Cc1noc(CCCC(=O)N2CCN(C)CC2c2ccccc2)n1 (stereo not drawn) | 29.2 |
| Cc1ccc(C(=O)N2CCSCC2)cc1NC(C)C | -3.36 |
| Cn1ccc2c(C(=O)N3CCC(C(N)=O)CC3)cccc21 | -2.97 |
| Cc1nnc(CN(C)C2CCN(c3cccc(-c4cscn4)c3)CC2)o1 | -3.22 |
| Cc1noc([C@@H]2C[C@H]3CN(C(=O)C4CCN(C)CC4)C[C@H]3O2)n1 | -11.3 |
| O=S(=O)(c1ccccc1)N1CCCC(Cn2cncn2)C1 (stereo not drawn) | -4.76 |
| O=C(CCc1ccc(OC(F)(F)F)cc1)N1CCCS1(=O)=O | -3.82 |
| O=C(O)c1cc2c(nc1-c1ccsc1)CCN(C(=O)C1CC1)CC2 | -7.32 |
| Cc1c(F)cccc1S(=O)(=O)Nc1noc(C(C)C)n1 | -7.44 |
| Cc1nc(CN2CCc3nc(N4CCCC4)nc(NC(C)C)c3C2)cs1 | -3.99 |
| Cn1cnc2ccc(NC(=O)CC3CCN(S(C)(=O)=O)CC3)cc21 | 12 |
| CC[C@H]1N(CC2CCOCC2)CCC[C@]12CCC(=O)N2 | -3.56 |
| O=C(c1ccnnc1)N1CCN2C[C@H](OCc3cccnc3)C[C@H]2C1 | -8.22 |
| O=C(C1CCC1)N1C[C@@H](c2ccsc2)[C@@H]2CN(C3CCCCC3)CC[C@@H]21 | 14.8 |
| CCN1Cc2cc(OC)ccc2N(CC(C)(C)O)CCC1=O | -13 |
| CCc1c(C)nn(CCNC(=O)Cc2csc(C)n2)c1C | -6.58 |
| CCn1nc(C)c2nc(C(C)C)nc(NCc3ccccn3)c21 | 0.25 |
| CCOc1c(F)cccc1C(=O)N(C)CCn1cccn1 | 7.19 |

| Structure (SMILES) | cytotoxicity at 70.5 h [%] |
| --- | --- |
| Cc1cc(C)nc(Nc2nccnc2C2CCCN(CCO)C2)n1 (stereo not drawn) | -3.54 |
| CN(C)c1ccc(CNC(=O)Nc2ccc(S(C)(=O)=O)nc2)cc1 | -7.69 |
| CN(C)C(=O)CN1CCOCC2(C1)CN(c1ncc(F)cn1)CCO2 (stereo not drawn) | -10.2 |
| COC(CNC(=O)NCc1c(C)cc(C)[nH]c1=O)c1ccccc1 (stereo not drawn) | -12.2 |
| COc1cccc(-c2ncc(CN3CC[C@H](CO)[C@@H](O)C3)s2)c1 | -20.8 |
| COCCN1CCO[C@H]2CCN(C(=O)c3ccnnc3)CC[C@@H]21 | -8.98 |
| O=C1COc2ccc(C(=O)NS(=O)(=O)c3cc(F)ccc3F)cc2N1 | -8.54 |
| O=C(c1cc2cccc(F)c2[nH]1)N1C[C@@H](O)[C@H](N2CCOCC2)C1 | -5.87 |
| O=S(=O)(c1cccc(Cl)c1)N1C[C@@H]2CCN[C@@H]2C1 | -0.439 |
| c1cncc(CN2CC[C@@H]3[C@@H]2CCN3Cc2ccc3c(c2)OCO3)c1 | 0.903 |
| Cc1nc(N2CCCC2)ncc1-c1cc(O)nc(N2CCCC2)n1 | -11.7 |
| CCn1cnnc1C1CCN(C(=O)c2cnc(C3CC3)s2)CC1 | -10.2 |
| COC1CCCN(c2nc(C)nc3c2CCN(Cc2ccco2)CC3)C1 (stereo not drawn) | 8.06 |
| Cc1cn[nH]c1C1COCCN1C(=O)c1ccc2c(c1)CCCC2 (stereo not drawn) | -3.65 |
| CCOCC(=O)N1CCc2c(ncnc2N2CCOCC2)C1 | -3.63 |
| Cc1cc(S(=O)(=O)N2CCOCC2C#N)ccc1F (stereo not drawn) | 13.3 |
| O=C(Cn1c(=O)oc2ccccc21)NCC(O)c1ccc2c(c1)CCO2 (stereo not drawn) | -2.64 |
| CC(Cc1ccc(Cl)cc1)NC(=O)Nc1cnn(CC(N)=O)c1 (stereo not drawn) | -8.4 |
| COc1ccnc(N2CCN(C(C)c3nc(C)no3)CC2)n1 (stereo not drawn) | 4.57 |
| Cc1ccc(NC2CCN(C(=O)c3cnc(C)s3)CC2)nn1 | -6.52 |
| NS(=O)(=O)c1ccc(NCc2ccccc2F)cc1C(F)(F)F | 1.33 |
| Cn1c(CN2CC[C@](C)(O)C(C)(C)C2)cc2ccccc21 | -5.32 |
| CCN(CC)S(=O)(=O)c1ccc(NC(=O)C(C)(C)C)cc1 | -4.91 |

| Structure (SMILES) | cytotoxicity at 70.5 h [%] |
| --- | --- |
| CCN(CC(=O)NC)C(=O)Cc1csc(C(C)C)n1 | -1.76 |
| O=S(=O)(NCc1ccccc1)N1CCCN(c2ccncc2)CC1 | 28.7 |
| O=C1CCC2(CCOC2)CN1Cc1ccc2nsnc2c1 (stereo not drawn) | -3.21 |
| O=S(=O)(c1ccc(F)cc1)N1CCCCC1c1cc[nH]n1 (stereo not drawn) | -6.41 |
| CC(C(=O)NCC1(c2cccc(Br)c2)CCC1)S(C)(=O)=O (stereo not drawn) | 7 |
| O=C(c1cnc(-c2cccs2)s1)N1CCCN2CCCC2C1 (stereo not drawn) | -5.78 |
| Cc1cnn(CC2CCCN2CC(=O)NCc2ccccn2)c1 (stereo not drawn) | -3.32 |
| O=S(=O)(NCCCN1CC=CC1)c1cncc(Cl)c1 | 29.6 |
| CNC(=O)C(C)(C)N1CCC[C@H]1C(=O)NCCN(C)C | -16.8 |
| N#Cc1cccc(OCCCN2CCN(C(=O)c3ccoc3)CC2)c1 | -10 |
| Cn1cc(N2CCC(NC(=O)c3ccccc3Cl)C2=O)cn1 (stereo not drawn) | 1.26 |
| Cc1cccc2[nH]c(COCC(=O)N3CCCn4cncc4C3)nc12 | -6.34 |
| CS(=O)(=O)NC1CCCN(C(=O)Nc2cccnc2)C1 (stereo not drawn) | 25.1 |
| O[C@@H]1C[C@@](CNCc2cccc(Cl)c2)(COc2cccnc2)C[C@@H]1O | -2.94 |
| NC(=O)C1CCCN(C(=O)c2cnc3c(cnn3C3CCCC3)c2)C1 (stereo not drawn) | 33 |
| CS(=O)(=O)NCCNCc1ccc(Br)s1 | 3.93 |
| CN1CCc2c1nc1c(c2N)CCC1 | -7.38 |
| COCCN(Cc1ccoc1)S(=O)(=O)c1ccc(OC)c(Cl)c1 | -20.8 |
| COCCNc1ccc(CC2CCCNC2)cn1 (stereo not drawn) | -7.04 |
| COc1ccc(NC(C)C(=O)N2CCN(c3ncccn3)CC2)cn1 (stereo not drawn) | 2.09 |
| Cc1c(C(=O)N2CCCC2c2cnn(C)c2)cnn1-c1ccccc1 (stereo not drawn) | 17.9 |
